13 compounds from PubChem BioAssay (NCI) can be followed below.

Structures are written as SMILES. “And” between values parts separate entries of the source, which are not always exact repeats. Identical values can stand only once.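 Exposure lasted 48 hours, with cells grown in 96-well plates and compounds tested at five concentrations. GI50 is the concentration that inhibits growth by half. TGI: total growth inhibition.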

Among the test systems are NCI-H522 lung; SK-MEL-5 melanoma; TK-10 renal; M14 melanoma; SF-539 CNS; OVCAR-5 ovarian; A549 NSCLC; SNB-19 CNS; KM12 colon; SF-295 CNS.
What all share (test): NCI tumour cell line growth inhibition, 48 h

In the case of `NNC(=S)N/N=C(\CC1OC(=O)c2ccccc21)c1ccccc1O` (centres undefined), the TGI was 83.8 µM with NCI-H522 lung; above 100 µM in the assay with SK-MEL-5 melanoma; above 100 µM in the assay with TK-10 renal; above 100 µM in the assay on M14 melanoma; 43.7 µM in the assay on SF-539 CNS; 33.9 µM in the assay on OVCAR-5 ovarian. Also, the TGI with A549 NSCLC is above 100 µM; in the assay with SNB-19 CNS it was above 100 µM; in the assay with KM12 colon, above 100 µM; in the assay with SF-295 CNS it was 40.4 µM.

Take `COc1cc(C2CC(c3cccc(Br)c3)=NN2C(C)=O)cc(OC)c1OC` (centres undefined): the GI50 with NCI-H522 lung is 0.286 µM; in the assay on SK-MEL-5 melanoma, 0.289 µM; with TK-10 renal, 16.5 µM; with M14 melanoma, 0.555 µM; in the assay with SF-539 CNS, 0.265 µM; with OVCAR-5 ovarian, 2.93 µM. Moreover, the GI50 with A549 NSCLC was 0.635 µM; in the assay on SNB-19 CNS it was 0.514 µM; in the assay on KM12 colon, 0.247 µM; in the assay with SF-295 CNS, 0.238 µM. Further, the TGI in the assay on NCI-H522 lung was 4.47 µM; in the assay with SK-MEL-5 melanoma, 14.9 µM; in the assay with TK-10 renal, 72.2 µM; in the assay on M14 melanoma it was 50.2 µM; in the assay on SF-539 CNS it was 2.62 µM; with OVCAR-5 ovarian, above 100 µM. The TGI was above 100 µM with A549 NSCLC, above 100 µM in the assay on SNB-19 CNS, 18 µM in the assay with KM12 colon and 16.3 µM in the assay with SF-295 CNS.

Consider `C=CCCCCC/C=C\[C@H](O)C#CC#C/C=C/CO`, for which the GI50 with NCI-H522 lung is 19.3 µM; in the assay with SK-MEL-5 melanoma, 38.5 µM; in the assay with TK-10 renal it was 28.8 µM; in the assay with M14 melanoma, 86.2 µM; in the assay on SF-539 CNS it was 58.2 µM; with OVCAR-5 ovarian, 43.3 µM. Besides, the GI50 in the assay on A549 NSCLC is 21.2 µM; in the assay on SNB-19 CNS, above 100 µM; in the assay on KM12 colon it was 18.3 µM; in the assay with SF-295 CNS, 60.3 µM. The TGI in the assay with NCI-H522 lung was 45.4 µM; with SK-MEL-5 melanoma, above 100 µM; in the assay on TK-10 renal, above 100 µM; with M14 melanoma, above 100 µM; with SF-539 CNS it was above 100 µM; in the assay with OVCAR-5 ovarian, above 100 µM. Also, the TGI in the assay with A549 NSCLC is 45.4 µM; in the assay on SNB-19 CNS it was above 100 µM; in the assay with KM12 colon it was 33.7 µM; in the assay with SF-295 CNS, above 100 µM.

With `COc1ccc2c(c1)CCCC(Br)C2=O` (centres undefined), the TGI in the assay with NCI-H522 lung was 0.837 µM; in the assay on SK-MEL-5 melanoma, 9.22 µM; in the assay with TK-10 renal, 16.8 µM; with M14 melanoma, 16.5 µM; in the assay with SF-539 CNS it was above 19.9 µM; with OVCAR-5 ovarian it was 20.8 µM. In addition, the TGI with A549 NSCLC was above 43.6 µM; in the assay with SNB-19 CNS it was 22.3 µM; with KM12 colon it was 12.8 µM; in the assay with SF-295 CNS, 17.2 µM.

Consider `CCN(CC)CCCC(CNc1ccnc2cc(Cl)ccc12)c1ccc(Cl)cc1` (centres undefined), for which the GI50 in the assay with NCI-H522 lung is 1.69 µM and 0.859 µM; in the assay on SK-MEL-5 melanoma, 1.13 µM; in the assay on TK-10 renal, 1.67 µM and 0.83 µM; with M14 melanoma, 0.227 µM and 0.203 µM; in the assay with SF-539 CNS, 1.23 µM and 1.52 µM; in the assay on OVCAR-5 ovarian it was 2.53 µM and 2.16 µM. Besides, the GI50 in the assay with A549 NSCLC is 2.06 µM and 1.63 µM; with SNB-19 CNS, 1.9 µM and 2.73 µM; with KM12 colon it was 1.77 µM and 1.54 µM; with SF-295 CNS, 1.79 µM and 1.35 µM. For the same compound, the TGI in the assay on NCI-H522 lung was 3.51 µM and 2.55 µM; with SK-MEL-5 melanoma it was 2.4 µM; in the assay with TK-10 renal it was 3.24 µM and 2.08 µM; in the assay on M14 melanoma, 0.612 µM and 0.405 µM; in the assay on SF-539 CNS it was 2.67 µM and 3.07 µM; with OVCAR-5 ovarian, 8.25 µM and 6.25 µM. Besides, the TGI with A549 NSCLC is 4.2 µM and 3.42 µM; with SNB-19 CNS, 4.17 µM and 6.9 µM; in the assay with KM12 colon, 3.52 µM and 4.33 µM; in the assay on SF-295 CNS, 3.54 µM and 2.76 µM.

On to `Cc1nc2c(-c3cnc(N)nc3)nc(N3CCOCC3)nc2n1C(C)C`, for which the GI50 in the assay on NCI-H522 lung was 0.137 µM and 0.138 µM. Also, the TGI in the assay on SK-MEL-5 melanoma is 0.9 µM and 0.652 µM; in the assay with TK-10 renal it was 0.6 µM and 0.505 µM; in the assay on M14 melanoma it was 2.12 µM and 5.91 µM; with SF-539 CNS, 1.17 µM and 0.481 µM; with OVCAR-5 ovarian, above 3.48 µM; with A549 NSCLC, 2.66 µM. Moreover, the TGI is above 100 µM in the assay on SNB-19 CNS; > 10 µM and 21.8 µM with KM12 colon; 0.888 µM and 0.406 µM in the assay on SF-295 CNS.

With `N#CC(=C1C=CC(=NO)C=C1)c1ccccc1`, the GI50 was 1.02 µM with NCI-H522 lung; 2.01 µM with SK-MEL-5 melanoma; 4.47 µM with TK-10 renal; 1.74 µM in the assay with M14 melanoma; 0.92 µM in the assay with SF-539 CNS; 2.53 µM in the assay with OVCAR-5 ovarian. In addition, the GI50 in the assay on A549 NSCLC is 4.58 µM; in the assay on SNB-19 CNS it was 3.73 µM; in the assay on KM12 colon, 0.355 µM; with SF-295 CNS it was 2.91 µM. The TGI in the assay on NCI-H522 lung stood at 4.68 µM; in the assay with SK-MEL-5 melanoma, 8.3 µM; in the assay with TK-10 renal, 13.3 µM; in the assay with M14 melanoma, 4.36 µM; in the assay with SF-539 CNS it was 3.37 µM; in the assay with OVCAR-5 ovarian it was 5.03 µM. Moreover, the TGI was above 37.2 µM in the assay with A549 NSCLC, 9.35 µM in the assay with SNB-19 CNS, 1.2 µM with KM12 colon and 8.16 µM in the assay with SF-295 CNS.

For `CCN(CC)c1ccc2c(c1)OC(N)=C(C#N)C2c1cc(OC)c2c(c1)OCO2` (centres undefined), the TGI was determined as 0.0474 µM in the assay on NCI-H522 lung; 0.597 µM in the assay with SK-MEL-5 melanoma; 25.5 µM in the assay with TK-10 renal; 0.0459 µM in the assay with M14 melanoma; 0.0806 µM with SF-539 CNS; 30.1 µM in the assay on OVCAR-5 ovarian. The TGI is above 100 µM in the assay with A549 NSCLC, 51 µM in the assay with SNB-19 CNS, 0.603 µM in the assay on KM12 colon and 2.68 µM in the assay on SF-295 CNS. Also, the GI50 in the assay on SK-MEL-5 melanoma is 0.0287 µM; with TK-10 renal, 0.316 µM; in the assay on M14 melanoma, 0.0138 µM; in the assay on SF-539 CNS, 0.0271 µM; with OVCAR-5 ovarian it was 0.0639 µM; in the assay on A549 NSCLC, 0.0322 µM. In addition, the GI50 in the assay on SNB-19 CNS is 0.0418 µM; with KM12 colon, 0.0325 µM; with SF-295 CNS it was below 0.0157 µM.

As to `Cc1cc(I)cc(CN(C)CCCN2CCCCCCC2)c1O`, the GI50 is 19.3 µM in the assay on NCI-H522 lung; 6.94 µM with SK-MEL-5 melanoma; 13.4 µM in the assay on TK-10 renal; 15.5 µM in the assay with M14 melanoma; 15.1 µM in the assay with SF-539 CNS; 18.8 µM in the assay with OVCAR-5 ovarian. Also, the GI50 in the assay on A549 NSCLC was 20.1 µM; in the assay on SNB-19 CNS it was 20.4 µM; in the assay with KM12 colon it was 14.2 µM; with SF-295 CNS, 7.38 µM. Besides, the TGI is 38.4 µM in the assay with NCI-H522 lung; 19.4 µM in the assay on SK-MEL-5 melanoma; 27 µM with TK-10 renal; 33.2 µM in the assay with M14 melanoma; 29.2 µM in the assay on SF-539 CNS; 41.5 µM with OVCAR-5 ovarian. Also, the TGI in the assay on A549 NSCLC came out at 45.5 µM; in the assay with SNB-19 CNS, 44.5 µM; in the assay on KM12 colon, 31 µM; in the assay with SF-295 CNS, 23 µM.

Regarding `Cc1ccc(S(=O)(=O)N(CC(=O)O)c2ccccc2)cc1`, the TGI in the assay with NCI-H522 lung, in the assay on SK-MEL-5 melanoma, with TK-10 renal, in the assay on M14 melanoma, in the assay on SF-539 CNS and in the assay with OVCAR-5 ovarian was above 100 µM in each case. Further, the TGI in the assay on A549 NSCLC, in the assay on SNB-19 CNS, in the assay with KM12 colon and in the assay with SF-295 CNS was above 100 µM in each case.

Regarding `CC(CCC=O)CCOCc1ccccc1` (centres undefined), the TGI in the assay on NCI-H522 lung was above 100 µM; with SK-MEL-5 melanoma, above 46.4 µM; with TK-10 renal, above 100 µM; in the assay on M14 melanoma, above 100 µM; with SF-539 CNS, above 100 µM; in the assay on OVCAR-5 ovarian it was above 100 µM. The TGI in the assay with A549 NSCLC, with SNB-19 CNS, in the assay with KM12 colon and in the assay with SF-295 CNS was above 100 µM each time.

`O=C(Cc1ccc(/C=C/C(=O)c2ncc[nH]2)cc1)Nc1cc(F)c(F)c(F)c1`: the GI50 in the assay on NCI-H522 lung was 3.46 µM; in the assay with SK-MEL-5 melanoma, 4.18 µM; with TK-10 renal it was 4.51 µM; in the assay with M14 melanoma, 4.06 µM; in the assay with SF-539 CNS it was 3.56 µM; with OVCAR-5 ovarian it was 4.58 µM. Besides, the GI50 with A549 NSCLC was 4.13 µM; in the assay on SNB-19 CNS it was 4.07 µM; in the assay on KM12 colon, 2.81 µM; with SF-295 CNS it was 6.82 µM. Besides, the TGI in the assay with NCI-H522 lung came out at 8.01 µM; with SK-MEL-5 melanoma, 8.19 µM; in the assay with TK-10 renal, 10.1 µM; in the assay with M14 melanoma, 8.36 µM; with SF-539 CNS, 6.95 µM; in the assay on OVCAR-5 ovarian, 8.84 µM. The TGI in the assay on A549 NSCLC was determined as 17.8 µM; in the assay with SNB-19 CNS, 9.93 µM; in the assay with KM12 colon, 6.85 µM; in the assay with SF-295 CNS, 20.5 µM.

With `Clc1nc2ccccc2nc1CI`, the GI50 is 1.77 µM in the assay on NCI-H522 lung; 2.6 µM with SK-MEL-5 melanoma; 3.94 µM with TK-10 renal; 3.32 µM with M14 melanoma; 2.34 µM in the assay on SF-539 CNS; 8.26 µM in the assay with OVCAR-5 ovarian. The GI50 is 19.2 µM with A549 NSCLC, 16.2 µM in the assay with SNB-19 CNS, 18.2 µM in the assay with KM12 colon and 18.9 µM in the assay with SF-295 CNS. Also, the TGI came out at 3.58 µM with NCI-H522 lung; 7.82 µM in the assay on SK-MEL-5 melanoma; 8.7 µM with TK-10 renal; 12.6 µM with M14 melanoma; 6.27 µM in the assay on SF-539 CNS; 22 µM with OVCAR-5 ovarian. Also, the TGI amounted to 38.6 µM in the assay on A549 NSCLC, 37.4 µM with SNB-19 CNS, 46.5 µM in the assay on KM12 colon and 44.9 µM with SF-295 CNS.
